Assay results taken from ChEMBL document CHEMBL4680300, “Synthesis, biological evaluation, and NMR studies of 3-fluorinated derivatives of 3',4',5'-trihydroxyflavone and 3',4',5'-trimethoxyflavone” (Bioorg Med Chem Lett, 2021).
≈ marks a conversion by molar mass, not a printed value. Calls of active or inactive are those of the source. The calls are words filed in the database; no cut-off is given here.

Tests used:
[1] = Antioxidant activity assessed as DPPH radical scavenging activity incubated for 20 mins in dark conditions; assay type: functional
[2] = Stability of the compound in DMSO assessed as formation of ortho-quinone intermediate in presence of DPPH measured by mass spectrometry; assay type: physicochemical
Neuron [3] = test: Neuroprotective activity in Sprague-Dawley rat cortical neurons assessed as reduction in glutamate-induced cell death preincubated for 1 hr followed by glutamate stimulation and measured after 24 hrs by MTS assay; assay type: functional, tissue-based; conditions: time 25.0 hrs
Neuron [4] = test: Neuroprotective activity in Sprague-Dawley rat cortical neurons assessed as reduction in glutamate-induced reactive oxygen species level incubated for 1 hr by DCFDA fluorescence-based microplate reader relative to control; assay type: functional, tissue-based
[5] = Stability of the compound in DMSO assessed as formation of ortho-quinone intermediate in presence of DPPH measured after 20 mins by NMR analysis; assay type: physicochemical

Compound | EC50 [1] [µg/mL] | Stabilty [2] | Activity (Neuron [3]) | Activity (Neuron [4]) | Stabilty [5]
COc1cc(-c2cc(=O)c3ccccc3o2)cc(OC)c1OC | 71.66 (≈ 229 µM) | – | – | – | –
O=c1c(F)c(-c2cc(O)c(O)c(O)c2)oc2ccccc12 | 0.24 (≈ 0.833 µM) | Unstable | Active | Active | Unstable
COc1cc(-c2oc3ccccc3c(=O)c2F)cc(OC)c1OC | 37.14 (≈ 112 µM) | – | – | – | –
O=c1cc(-c2cc(O)c(O)c(O)c2)oc2ccccc12 | 0.33 (≈ 1.22 µM) | – | Active | – | –
O=C1O[C@H]([C@@H](O)CO)C(O)=C1O [ASCORBIC ACID] | 0.16 (≈ 0.908 µM) | – | – | – | –
C[C@]12N[C@H](Cc3ccccc31)c1ccccc12 | – | – | Active | – | –
